Source: US10392404B2, “Compounds and compositions as kinase inhibitors” (NOVARTIS AG, priority 2014, dated 2019)
pIC50: −log10 of the molar value.

How the values were obtained:
b-Raf (V600E) = target: T1, b-Raf (V600E) (Homo sapiens, UniProt P15056, V600E); assay: In vitro Raf activity determination (Alpha Screen, biotinylated kinase-dead MEK1 substrate), B-Raf; type: biochemical; settings: b-Raf (V600E) approximately 4 pM; ATP 10 μM; pre-incubation 60 minutes; reaction 3 hours at room temperature
T1 construct: made in house
T1 sequence (P15056 whole entry V600E): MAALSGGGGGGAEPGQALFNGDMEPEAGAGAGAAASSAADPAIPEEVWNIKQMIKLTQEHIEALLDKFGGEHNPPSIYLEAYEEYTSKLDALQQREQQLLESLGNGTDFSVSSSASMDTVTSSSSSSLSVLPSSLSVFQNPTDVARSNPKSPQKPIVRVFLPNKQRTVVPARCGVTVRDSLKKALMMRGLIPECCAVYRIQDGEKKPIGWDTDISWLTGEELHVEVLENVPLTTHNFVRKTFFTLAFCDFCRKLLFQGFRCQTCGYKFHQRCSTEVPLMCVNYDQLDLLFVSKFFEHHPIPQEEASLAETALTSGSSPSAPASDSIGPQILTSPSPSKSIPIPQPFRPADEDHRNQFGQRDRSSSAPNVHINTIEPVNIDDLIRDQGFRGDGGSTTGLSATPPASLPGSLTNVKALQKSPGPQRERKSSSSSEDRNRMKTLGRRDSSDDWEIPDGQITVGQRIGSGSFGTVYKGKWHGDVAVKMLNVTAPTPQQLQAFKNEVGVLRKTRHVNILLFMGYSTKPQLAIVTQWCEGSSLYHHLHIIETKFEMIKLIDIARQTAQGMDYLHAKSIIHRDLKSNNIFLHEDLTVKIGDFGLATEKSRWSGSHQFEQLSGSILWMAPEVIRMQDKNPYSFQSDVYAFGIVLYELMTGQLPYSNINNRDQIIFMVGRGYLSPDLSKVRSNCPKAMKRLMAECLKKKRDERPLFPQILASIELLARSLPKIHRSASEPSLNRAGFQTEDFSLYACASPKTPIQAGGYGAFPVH
Procedure: (§1) Full length MEK1 with an inactivating K97R ATP binding site mutation is utilized as a RAF substrate. The MEK1 cDNA was subcloned with an N-terminal (his)6 tag into a vector for E. Coli expression. The MEK1 substrate was purified from E. Coli lysate by nickel affinity chromatography followed by anion exchange. The final MEK1 preparation was biotinylated (Pierce EZ-Link Sulfo-NHS-LC-Biotin) and concentrated.
(§2) Assay Materials: Assay buffer is 50 mM Tris, pH 7.5, 15 mM MgCl2, 0.01% Bovine Serum Albumin (BSA) and 1 mM dithiothreitol (DTT); Stop buffer is 60 mM ethylenediaminetetraacetic acid (EDTA) and 0.01% Tween® 20; b-Raf (V600E), active; biotinylated Mek, kinase dead; Alpha Screen detection kit (available from PerkinElmer™, #6760617R); Anti phospho-MEK1/2 (available from Cell Signaling Technology, Inc. #9121); 384 well low volume assay plates (White Greiner® plates).
(§3) Assay conditions: b-Raf (V600E) approximately 4 pM; c-Raf approximately 4 nM; biotinylated Mek, kinase dead approximately 10 nM; ATP 10 μM for BRAF (V600E) and 1 μM for CRAF; Pre-incubation time with compounds 60 minutes at room temperature; Reaction time 1 or 3 hours at room temperature.
(§4) Assay protocol: Raf and biotinylated Mek (kinase dead) were combined at 2× final concentrations in assay buffer (50 mM Tris, pH 7.5, 15 mM MgCl2, 0.01% BSA and 1 mM DTT) and dispensed […] per well in assay plates (Greiner white 384 well assay plates #781207) containing […] of 40× of a Raf kinase inhibitor test compound diluted in 100% DMSO. The plate was incubated for 60 minutes at room temperature. The Raf kinase activity reaction was started by the addition of […] per well of 2×ATP diluted in assay buffer. After 3 hours (b-Raf(V600E)) or 1 hour (c-Raf). The reactions were stopped and the phosphorylated product was measured using a rabbit anti-p-MEK (Cell Signaling, #9121) antibody and the Alpha Screen IgG (ProteinA) detection Kit (PerkinElmer #6760617R), by the addition of […] to the well of a mixture of the antibody (1:2000 dilution) and detection beads (1:2000 dilution of both beads) in Stop/bead buffer (25 mM EDTA, 50 mM Tris, pH 7.5, 0.01% Tween20). The additions were carried out under dark conditions to protect the detection beads from light. A lid was placed on top of the plate and incubated for 1 hour at room temperature, after which the luminescence was read on a PerkinElmer Envision instrument. The concentration of each compound for 50% inhibition (IC50) was calculated by non-linear regression using XL Fit data analysis software.

C-RAF = target: T2, C-RAF (Homo sapiens, UniProt P04049, Y340E/Y341E); assay: In vitro Raf activity determination (Alpha Screen, biotinylated kinase-dead MEK1 substrate), C-Raf; type: biochemical; settings: c-Raf approximately 4 nM; ATP 1 μM; pre-incubation 60 minutes; reaction 1 hour at room temperature
T2 construct: His tag (implied by nickel chromatography) (cleaved yes); StrepII tag (cleaved yes); made in house; host or cells: Sf9 insect cells (baculovirus), CRAF and h14-3-3 zeta co-expressed; MEK1 substrate from E. coli
T2 sequence (P04049 whole entry Y340E/Y341E): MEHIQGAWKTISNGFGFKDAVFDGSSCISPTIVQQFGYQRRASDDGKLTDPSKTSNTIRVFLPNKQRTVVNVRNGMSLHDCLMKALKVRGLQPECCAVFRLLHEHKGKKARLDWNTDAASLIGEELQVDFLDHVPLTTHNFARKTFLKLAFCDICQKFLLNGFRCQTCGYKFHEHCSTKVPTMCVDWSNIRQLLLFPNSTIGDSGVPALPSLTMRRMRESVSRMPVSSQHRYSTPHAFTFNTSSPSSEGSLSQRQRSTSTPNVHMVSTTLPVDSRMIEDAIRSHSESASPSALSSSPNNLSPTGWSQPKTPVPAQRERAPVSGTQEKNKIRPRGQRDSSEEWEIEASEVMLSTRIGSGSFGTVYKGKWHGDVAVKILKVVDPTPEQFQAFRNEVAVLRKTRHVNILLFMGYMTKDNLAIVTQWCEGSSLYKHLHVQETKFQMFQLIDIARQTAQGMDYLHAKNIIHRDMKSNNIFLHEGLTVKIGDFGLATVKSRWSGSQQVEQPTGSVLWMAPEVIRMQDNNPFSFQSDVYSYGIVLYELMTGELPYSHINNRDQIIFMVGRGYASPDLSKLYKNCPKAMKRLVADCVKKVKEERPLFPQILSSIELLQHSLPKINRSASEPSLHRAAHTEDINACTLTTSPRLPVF
T2 sequence (P63104 whole entry partner): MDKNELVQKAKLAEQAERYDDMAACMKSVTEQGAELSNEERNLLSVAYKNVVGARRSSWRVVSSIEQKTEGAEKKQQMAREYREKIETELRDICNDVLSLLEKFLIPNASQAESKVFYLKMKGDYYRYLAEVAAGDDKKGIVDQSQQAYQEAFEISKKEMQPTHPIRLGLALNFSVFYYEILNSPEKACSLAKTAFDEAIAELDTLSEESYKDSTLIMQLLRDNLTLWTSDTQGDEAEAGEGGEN
Description: CRAF cDNA was subcloned as full length protein, with Y340E and Y341E activating mutations, into a baculovirus expression vector for Sf9 insect cell expression. h14-3-3 zeta cDNA was subcloned into a baculovirus expression vector for SF9 insect cell expression. Sf9 cells co-expressing both proteins were lysed and subjected to immobilized nickel chromatography and eluted with Imidazole. A second column (StrepII binding column) was used and eluted with desthiobiotin. Protein Tags were removed using Prescission enzyme and the protein was further purified using a flowthrough step to remove tags.
C-Raf TR refers to a truncated C-Raf protein, a Δ1-324 deletion mutant. C-Raf FL refers to the full-length C-Raf protein.
as §1, §2, §3, §4

pIC50 (b-Raf (V600E)) | pIC50 (C-RAF) | SMILES
7.89 | 8.87 | Cc1cc(CC(=O)Nc2ccc(C)c(-c3cnc(N(C)C)c(C#N)c3)c2)on1 [Example 257, N-(3-(5-cyano-6-(dimethylamino)pyridin-3-yl)-4-methylphenyl)-2-(3-methylisoxazol-5-yl)acetamide]
8.01 | 8.99 | Cc1ncc(NC(=O)c2cc(C(C)(C)F)ccn2)cc1-c1cnc(N2CC(C)(O)C2)c(C#N)c1 [Example 243, N-(5′-cyano-6′-(3-hydroxy-3-methylazetidin-1-yl)-2-methyl-[3,3′-bipyridin]-5-yl)-4-(2-fluoropropan-2-yl)picolinamide]
8.84 | 9.66 | Cc1ccc(NC(=O)c2cnnc(C(C)(C)C#N)c2)cc1-c1cnc(NC2CCOCC2)c(C#N)c1 [Example 204, N-(3-(5-cyano-6-((tetrahydro-2H-pyran-4-yl)amino)pyridin-3-yl)-4-methylphenyl)-6-(2-cyanopropan-2-yl)pyridazine-4-carboxamide]
9.00 | 9.38 | Cc1ncc(NC(=O)c2ccnc(C(F)(F)F)c2)cc1-c1cnc(N2CCNCC2)c(C#N)c1 [Example 70, N-(5′-cyano-2-methyl-6′-(piperazin-1-yl)-[3,3′-bipyridin]-5-yl)-2-(trifluoromethyl) isonicotinamide]
7.96 | 8.74 | Cc1ncc(NC(=O)c2cnnc(C(C)(C)C#N)c2)cc1-c1cnc(NC2CCOCC2)c(C#N)c1 [Example 205, N-(5′-cyano-2-methyl-6′-((tetrahydro-2H-pyran-4-yl)amino)-[3,3′-bipyridin]-5-yl)-6-(2-cyanopropan-2-yl)pyridazine-4-carboxamide]
8.09 | 8.89 | Cc1ccc(NC(=O)c2ccnc(C(C)(C)O)c2)cc1-c1cnc(N2CC(C)(O)C2)c(C#N)c1 [Example 215, N-(3-(5-cyano-6-(3-hydroxy-3-methylazetidin-1-yl)pyridin-3-yl)-4-methylphenyl)-2-(2-hydroxypropan-2-yl)isonicotinamide]
8.64 | 9.49 | Cc1ccc(NC(=O)c2cccc(C(F)(F)F)c2)cc1-c1cnc(NC2CC2)c(C#N)c1 [Example 17, N-(3-(5-cyano-6-(cyclopropylamino)pyridin-3-yl)-4-methylphenyl)-3-(trifluoromethyl) benzamide]
9.23 | 9.80 | Cc1ccc(NC(=O)c2ccnc(C(C)C)c2)cc1-c1cnc(N2CCNCC2)c(C#N)c1 [Example 150, N-(3-(5-cyano-6-(piperazin-1-yl)pyridin-3-yl)-4-methylphenyl)-2-isopropyl-isonicotinamide]
7.21 | 7.96 | Cc1ncc(NC(=O)c2ccnc(C(C)(C)O)c2)cc1-c1cnc(N2CC(C)(O)C2)c(C#N)c1 [Example 185, N-(5′-cyano-6′-(3-hydroxy-3-methylazetidin-1-yl)-2-methyl-[3,3′-bipyridin]-5-yl)-2-(2-hydroxypropan-2-yl)isonicotinamide]
8.58 | 9.42 | Cc1ncc(NC(=O)c2cc(C(C)(C)C#N)ccn2)cc1-c1cnc(N2CCOCC2)c(C#N)c1 [Example 230, N-(5′-cyano-2-methyl-6′-morpholino-[3,3′-bipyridin]-5-yl)-4-(2-cyanopropan-2-yl)picolinamide]
8.30 | 8.86 | COCCNc1ncc(-c2cc(NC(=O)c3cc(C(F)(F)F)ccn3)cnc2C)cc1C#N [Example 229, N-(5′-cyano-6′-((2-methoxyethyl)amino)-2-methyl-[3,3′-bipyridin]-5-yl)-4-(trifluoromethyl) picolinamide]
6.05 | 7.26 | CCn1cc(C(=O)Nc2cnc(C)c(-c3cnc(N(C)C)c(C#N)c3)c2)c(C)n1 [Example 263, N-(5′-cyano-6′-(dimethylamino)-2-methyl-[3,3′-bipyridin]-5-yl)-1-ethyl-3-methyl-1H-pyrazole-4-carboxamide]
8.20 | 9.15 | Cc1ncc(NC(=O)c2cc(C(C)(F)F)ccn2)cc1-c1cnc(N2CC(C)(O)C2)c(C#N)c1 [Example 239]
9.58 | 10.40 | Cc1ccc(NC(=O)c2ccnc(C3CC3)c2)cc1-c1cnc(N2CCOCC2)c(C#N)c1 [Example 155, N-(3-(5-cyano-6-morpholinopyridin-3-yl)-4-methylphenyl)-2-cyclopropyl-isonicotinamide]
9.30 | 9.94 | Cc1ccc(NC(=O)c2ccnc(C3(C#N)CC3)c2)cc1-c1cnc(N2CCOCC2)c(C#N)c1 [Example 147, N-(3-(5-cyano-6-morpholinopyridin-3-yl)-4-methylphenyl)-2-(1-cyanocyclopropyl) isonicotinamide]
8.20 | 8.75 | Cc1ncc(NC(=O)c2ccnc(C(C)(C)C#N)c2)cc1-c1cnc(-c2cn(C)nc2C)c(C#N)c1 [Example 113, N-(5′-cyano-6′-(1,3-dimethyl-1H-pyrazol-4-yl)-2-methyl-[3,3′-bipyridin]-5-yl)-2-(2-cyanopropan-2-yl)isonicotinamide]
8.24 | 9.08 | Cc1ncc(NC(=O)c2ccnc(C(C)(F)F)c2)cc1-c1cnc(N2CC(C)(O)C2)c(C#N)c1 [Example 183, N-(5′-cyano-6′-(3-hydroxy-3-methylazetidin-1-yl)-2-methyl-[3,3′-bipyridin]-5-yl)-2-(1,1-difluoroethyl) isonicotinamide]
7.55 | 8.24 | Cc1ncc(NC(=O)c2cc(C(C)(C)O)ccn2)cc1-c1cnc(N2CC(C)(O)C2)c(C#N)c1 [Example 235, N-(5′-cyano-6′-(3-hydroxy-3-methylazetidin-1-yl)-2-methyl-[3,3′-bipyridin]-5-yl)-4-(2-hydroxypropan-2-yl)picolinamide]
7.68 | 8.78 | Cc1ccc(C(=O)Nc2cccc(C(F)(F)F)c2)cc1-c1cncc(C#N)c1 [Example 27, 3-(5-cyanopyridin-3-yl)-4-methyl-N-(3-(trifluoromethyl)phenyl)benzamide]
8.84 | 9.60 | Cc1ccc(NC(=O)c2ccnc(C(C)(C)C#N)c2)cc1-c1cnc(-c2cnn(C)c2)c(C#N)c1 [Example 125, N-(3-(5-cyano-6-(1-methyl-1H-pyrazol-4-yl)pyridin-3-yl)-4-methylphenyl)-2-(2-cyanopropan-2-yl)isonicotinamide]
8.41 | 9.21 | Cc1ccc(NC(=O)c2cccc(C(F)(F)F)c2)cc1-c1cncc(C#N)c1 [Example 34, N-(3-(5-cyanopyridin-3-yl)-4-methylphenyl)-3-(trifluoromethyl) benzamide]
8.05 | 8.68 | Cc1ncc(NC(=O)c2ccnc(C(C)(C)C#N)c2)cc1-c1cnc(N2C[C@H]3C[C@@H]2CO3)c(C#N)c1 [Example 90, N-(6′-((1R,4R)-2-oxa-5-azabicyclo[2.2.1]heptan-5-yl)-5′-cyano-2-methyl-[3,3′-bipyridin]-5-yl)-2-(2-cyanopropan-2-yl)isonicotinamide]
8.33 | 9.13 | Cc1ccc(NC(=O)c2cnnc(C(C)(C)C#N)c2)cc1-c1cnc(N2CC(C)(O)C2)c(C#N)c1 [Example 214, N-(3-(5-cyano-6-(3-hydroxy-3-methylazetidin-1-yl)pyridin-3-yl)-4-methylphenyl)-6-(2-cyanopropan-2-yl)pyridazine-4-carboxamide]
– | 6.51 | Cc1cc(C(=O)Nc2cnc(C)c(-c3cnc(N(C)C)c(C#N)c3)c2)n(C)n1 [Example 265, N-(5′-cyano-6′-(dimethylamino)-2-methyl-[3,3′-bipyridin]-5-yl)-1,3-dimethyl-1H-pyrazole-5-carboxamide]
